According to the supplement of paper PMC10307832:

Tests used:
Test in all cases: relative viability (nuclei count vs DMSO), 5 days (fraction); higher = more cells survive
EMC-BAC-2 = test system: EMC-BAC-2
Outline: (§1)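 For relative viability, nuclei counts in treated wells were divided by those in vehicle wells. Lung cancer cell lines had been pin-tool dosed in 1536-well plates the day after seeding and cultured for 5 days, then fixed and stained in one step (final 0.05% Triton X-100, 1% formaldehyde, 1 ug/ml Hoechst) and imaged at 4×. Doses were one drug alone or a fixed anchor-drug dose plus five library-drug doses (not always all listed) in √10 steps, and values are duplicate-plate medians.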

NCI-H1755 = test system: NCI-H1755
Outline: as §1

NCI-H1944 = test system: NCI-H1944
Outline: as §1

LC-2-ad = test system: LC-2-ad
Outline: as §1

NCI-H2087 = test system: NCI-H2087
Outline: as §1

SK-LU-1 = test system: SK-LU-1
Outline: as §1

SK-MES-1 = test system: SK-MES-1
Outline: as §1

COR-L 105 = test system: COR-L 105
Outline: as §1

PC-3 [JPC-3] = test system: PC-3 [JPC-3]
Outline: as §1

NCI-H661 = test system: NCI-H661
Outline: as §1

NCI-H2347 = test system: NCI-H2347
Outline: as §1

NCI-H2085 = test system: NCI-H2085
Outline: as §1

CAL-12T = test system: CAL-12T
Outline: as §1

LK-2 = test system: LK-2
Outline: as §1

NCI-H1793 = test system: NCI-H1793
Outline: as §1

H3255 = test system: H3255
Outline: as §1

NCI-H2228 = test system: NCI-H2228
Outline: as §1

NCI-H1651 = test system: NCI-H1651
Outline: as §1

NCI-H1915 = test system: NCI-H1915
Outline: as §1

NCI-H1437 = test system: NCI-H1437
Outline: as §1

EKVX = test system: EKVX
Outline: as §1

LXF-289 = test system: LXF-289
Outline: as §1

NCI-H1395 = test system: NCI-H1395
Outline: as §1

`Cc1cnc(-c2cnc(NCCNc3ccc(C#N)cn3)nc2-c2ccc(Cl)cc2Cl)[nH]1` + C[C@]1(O)C[C@@H](c2nc(-c3ccc4ccc(-c5ccccc5)nc4c3)c3c(N)nccn32)C1 [Linsitinib] (partner 1 µM) gave a relative viability (EMC-BAC-2; first compound 0.08 µM) of 0.852, a relative viability (EMC-BAC-2; first compound 0.253 µM) of 0.792 and a relative viability (EMC-BAC-2; first compound 0.8 µM) of 0.814. The relative viability (EMC-BAC-2; first compound 2.53 µM) was 0.83, the relative viability (NCI-H1755; first compound 0.08 µM) was 1.03 and the relative viability (NCI-H1755; first compound 0.253 µM) was 0.856. It also gave a relative viability (NCI-H1755; first compound 0.8 µM) of 0.958, a relative viability (NCI-H1755; first compound 2.53 µM) of 0.991 and a relative viability (NCI-H1944; first compound 0.08 µM) of 1.36. For the same molecule, the relative viability (NCI-H1944; first compound 0.8 µM) was 1.23, the relative viability (NCI-H1944; first compound 2.53 µM) was 1.21 and the relative viability (LC-2-ad; first compound 0.08 µM) was 0.905. For the same molecule, the relative viability (LC-2-ad; first compound 0.8 µM) was 0.858, the relative viability (LC-2-ad; first compound 2.53 µM) was 0.92 and the relative viability (NCI-H2087; first compound 0.08 µM) was 0.907. For the same molecule, the relative viability (NCI-H2087; first compound 0.253 µM) was 0.978, the relative viability (NCI-H2087; first compound 0.8 µM) was 0.987 and the relative viability (NCI-H2087; first compound 2.53 µM) was 1.02. The relative viability (SK-LU-1; first compound 0.08 µM) was 1.13, the relative viability (SK-LU-1; first compound 0.253 µM) was 1.12 and the relative viability (SK-LU-1; first compound 0.8 µM) was 1.32. The relative viability (SK-LU-1; first compound 2.53 µM) was 1.09, the relative viability (SK-MES-1; first compound 0.08 µM) was 1.2 and the relative viability (SK-MES-1; first compound 0.253 µM) was 1.03. It also gave a relative viability (SK-MES-1; first compound 0.8 µM) of 1.05, a relative viability (SK-MES-1; first compound 2.53 µM) of 1.04 and a relative viability (COR-L 105; first compound 0.08 µM) of 1. For the same molecule, the relative viability (COR-L 105; first compound 0.253 µM) was 0.897, the relative viability (COR-L 105; first compound 0.8 µM) was 0.832 and the relative viability (COR-L 105; first compound 2.53 µM) was 0.697. For the same molecule, the relative viability (PC-3 [JPC-3]; first compound 0.08 µM) was 0.93, the relative viability (PC-3 [JPC-3]; first compound 0.253 µM) was 0.858 and the relative viability (PC-3 [JPC-3]; first compound 0.8 µM) was 0.943. For the same molecule, the relative viability (PC-3 [JPC-3]; first compound 2.53 µM) was 0.964, the relative viability (NCI-H661; first compound 0.08 µM) was 0.775 and the relative viability (NCI-H661; first compound 0.253 µM) was 0.628. The relative viability (NCI-H661; first compound 0.8 µM) was 0.448, the relative viability (NCI-H661; first compound 2.53 µM) was 0.63 and the relative viability (NCI-H2347; first compound 0.08 µM) was 1.08. For the same molecule, the relative viability (NCI-H2347; first compound 0.253 µM) was 0.72, the relative viability (NCI-H2347; first compound 0.8 µM) was 1 and the relative viability (NCI-H2347; first compound 2.53 µM) was 1.02. The relative viability (NCI-H2085; first compound 0.08 µM) was 0.986, the relative viability (NCI-H2085; first compound 0.253 µM) was 0.932 and the relative viability (NCI-H2085; first compound 0.8 µM) was 0.919. For the same molecule, the relative viability (NCI-H2085; first compound 2.53 µM) was 0.882, the relative viability (CAL-12T; first compound 0.08 µM) was 0.806 and the relative viability (CAL-12T; first compound 0.253 µM) was 0.787. It also gave a relative viability (CAL-12T; first compound 0.8 µM) of 0.841, a relative viability (CAL-12T; first compound 2.53 µM) of 0.837 and a relative viability (LK-2; first compound 0.08 µM) of 0.62. It also gave a relative viability (LK-2; first compound 0.253 µM) of 0.476, a relative viability (LK-2; first compound 0.8 µM) of 0.489 and a relative viability (LK-2; first compound 2.53 µM) of 0.789. The relative viability (NCI-H1793; first compound 0.08 µM) was 1.16, the relative viability (NCI-H1793; first compound 0.253 µM) was 0.822 and the relative viability (NCI-H1793; first compound 0.8 µM) was 0.809. It also gave a relative viability (NCI-H1793; first compound 2.53 µM) of 0.916, a relative viability (H3255; first compound 0.08 µM) of 1.15 and a relative viability (H3255; first compound 0.253 µM) of 0.884. The relative viability (H3255; first compound 0.8 µM) was 0.928, the relative viability (H3255; first compound 2.53 µM) was 0.944 and the relative viability (NCI-H2228; first compound 0.08 µM) was 0.678. The relative viability (NCI-H2228; first compound 0.253 µM) was 0.637, the relative viability (NCI-H2228; first compound 0.8 µM) was 0.597 and the relative viability (NCI-H2228; first compound 2.53 µM) was 0.481. It also gave a relative viability (NCI-H1651; first compound 0.08 µM) of 1.22, a relative viability (NCI-H1651; first compound 0.253 µM) of 0.893 and a relative viability (NCI-H1651; first compound 0.8 µM) of 1.04. The relative viability (NCI-H1651; first compound 2.53 µM) was 1.06, the relative viability (NCI-H1915; first compound 0.08 µM) was 1.08 and the relative viability (NCI-H1915; first compound 0.8 µM) was 1.11. The relative viability (NCI-H1915; first compound 2.53 µM) was 1.08, the relative viability (NCI-H1437; first compound 0.08 µM) was 1.01 and the relative viability (NCI-H1437; first compound 0.253 µM) was 0.972. The relative viability (NCI-H1437; first compound 0.8 µM) was 1.03, the relative viability (NCI-H1437; first compound 2.53 µM) was 1.04 and the relative viability (EKVX; first compound 0.08 µM) was 1.07. It also gave a relative viability (EKVX; first compound 0.253 µM) of 0.794, a relative viability (EKVX; first compound 0.8 µM) of 0.934 and a relative viability (EKVX; first compound 2.53 µM) of 0.926. For the same molecule, the relative viability (LXF-289; first compound 0.08 µM) was 0.965, the relative viability (LXF-289; first compound 0.253 µM) was 0.897 and the relative viability (LXF-289; first compound 0.8 µM) was 1.01. For the same molecule, the relative viability (LXF-289; first compound 2.53 µM) was 0.984, the relative viability (NCI-H1395; first compound 0.08 µM) was 1.17 and the relative viability (NCI-H1395; first compound 0.253 µM) was 0.972. The relative viability (NCI-H1395; first compound 0.8 µM) was 1.04 and the relative viability (NCI-H1395; first compound 2.53 µM) was 1.
